US8933015B2, “Macrocyclic inhibitors of flaviviridae viruses” (Gilead Sciences, Inc., priority 2010, dated 2015)
Like-named read-outs stand apart in the source and are kept apart here.

Conditions: rcm bond, 22-membered ring, Hoveyda-Grubbs II, DCE

Row | Compound | ring closure, isolated yield (from C=CCC[C@@H](OC)[C@@H](C)C(=O)N[C@H](C(=O)N[C@@H](Cc1cccc(O[Si](C)(C)C(C)(C)C)c1)C(=O)N1CCC[C@@H](C(=O)O[C@H](C)c2cccc(C=C)c2)N1)C(C)C, 2.68 mM, 83.0 °C, 3.0 h) [%] | ring closure, isolated yield (from C=CCC[C@H](CC(=O)N[C@H](C(=O)N[C@@H](Cc1cccc(O[Si](C)(C)C(C)(C)C)c1)C(=O)N1CCC[C@@H](C(=O)O[C@H](C)c2cccc(C=C)c2)N1)C(C)C)OC, 2.63 mM, 80.0 °C, 1.5 h) [%]
1 | CO[C@@H]1CCC=Cc2cccc(c2)[C@@H](C)OC(=O)[C@@H]2CCCN(N2)C(=O)[C@H](Cc2cccc(O[Si](C)(C)C(C)(C)C)c2)NC(=O)[C@H](C(C)C)NC(=O)[C@@H]1C | 70 | 
2 | CO[C@@H]1CC/C=C/c2cccc(c2)[C@@H](C)OC(=O)[C@@H]2CCCN(N2)C(=O)[C@H](Cc2cccc(O[Si](C)(C)C(C)(C)C)c2)NC(=O)[C@H](C(C)C)NC(=O)C1 |  | 46
